# From PubChem BioAssay (NCI)
#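 Results reflect a 48-hour exposure of cells in 96-well plates to compound at five concentrations. The concentration for 50% growth inhibition is given as GI50. Definition used: TGI = concentration required for complete inhibition of growth.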
# Key:
# Test in all cases: NCI anticancer screen, dose series, 48 h
# 786-0 renal = tested on: 786-0 renal
# A498 renal = tested on: A498 renal
# A549 NSCLC = tested on: A549 NSCLC
# ACHN renal = tested on: ACHN renal
# BT-549 breast = tested on: BT-549 breast
# CAKI-1 renal = tested on: CAKI-1 renal
# CCRF-CEM leukemia = tested on: CCRF-CEM leukemia
# COLO 205 colon = tested on: COLO 205 colon
# DU-145 prostate = tested on: DU-145 prostate
# EKVX NSCLC = tested on: EKVX NSCLC
# HCC-2998 colon = tested on: HCC-2998 colon
# HCT-116 colon = tested on: HCT-116 colon
# HCT-15 colon = tested on: HCT-15 colon
# HL-60(TB) leukemia = tested on: HL-60(TB) leukemia
# HOP-62 NSCLC = tested on: HOP-62 NSCLC
# HOP-92 NSCLC = tested on: HOP-92 NSCLC
# HS 578T breast = tested on: HS 578T breast
# IGROV1 ovarian = tested on: IGROV1 ovarian
# KM12 colon = tested on: KM12 colon
# LOX IMVI melanoma = tested on: LOX IMVI melanoma
# M14 melanoma = tested on: M14 melanoma
# MALME-3M melanoma = tested on: MALME-3M melanoma
# MCF7 breast = tested on: MCF7 breast
# MDA-MB-231 breast = tested on: MDA-MB-231 breast
# MDA-MB-435 = tested on: MDA-MB-435
# MOLT-4 leukemia = tested on: MOLT-4 leukemia
# NCI-H226 lung = tested on: NCI-H226 lung
# NCI-H23 lung = tested on: NCI-H23 lung
# NCI-H460 lung = tested on: NCI-H460 lung
# NCI-H522 lung = tested on: NCI-H522 lung
# NCI/ADR-RES ovarian = tested on: NCI/ADR-RES ovarian
# OVCAR-3 ovarian = tested on: OVCAR-3 ovarian
# OVCAR-4 ovarian = tested on: OVCAR-4 ovarian
# OVCAR-5 ovarian = tested on: OVCAR-5 ovarian
# OVCAR-8 ovarian = tested on: OVCAR-8 ovarian
# PC-3 prostate = tested on: PC-3 prostate
# RXF 393 renal = tested on: RXF 393 renal
# SF-268 CNS = tested on: SF-268 CNS
# SF-295 CNS = tested on: SF-295 CNS
# SF-539 CNS = tested on: SF-539 CNS
# SK-MEL-2 melanoma = tested on: SK-MEL-2 melanoma
# SK-MEL-28 melanoma = tested on: SK-MEL-28 melanoma
# SK-MEL-5 melanoma = tested on: SK-MEL-5 melanoma
# SK-OV-3 ovarian = tested on: SK-OV-3 ovarian
# SN12C renal = tested on: SN12C renal
# SNB-19 CNS = tested on: SNB-19 CNS
# SNB-75 CNS = tested on: SNB-75 CNS
# SW-620 colon = tested on: SW-620 colon
# T-47D breast = tested on: T-47D breast
# TK-10 renal = tested on: TK-10 renal
# U251 CNS = tested on: U251 CNS
# UACC-257 melanoma = tested on: UACC-257 melanoma
# UACC-62 melanoma = tested on: UACC-62 melanoma
# UO-31 renal = tested on: UO-31 renal
smiles,measurement,setting,value
CC(C)(C)n1cc(-c2ccnc(NCCCNS(=O)(=O)c3ccc(Cl)cc3)c2)c(-c2cccc(O)c2)n1,GI50,786-0 renal,2030 nM
same,TGI,786-0 renal,4540 nM
same,GI50,A498 renal,1510 nM
same,TGI,A498 renal,3720 nM
same,GI50,A549 NSCLC,1970 nM
same,TGI,A549 NSCLC,4970 nM
same,GI50,ACHN renal,1970 nM
same,TGI,ACHN renal,4480 nM
same,GI50,BT-549 breast,1670 nM
same,TGI,BT-549 breast,3160 nM
same,GI50,CAKI-1 renal,2060 nM
same,TGI,CAKI-1 renal,5350 nM
same,GI50,CCRF-CEM leukemia,2130 nM
same,TGI,CCRF-CEM leukemia,7850 nM
same,GI50,COLO 205 colon,1660 nM
same,TGI,COLO 205 colon,3390 nM
same,GI50,DU-145 prostate,2750 nM
same,TGI,DU-145 prostate,7630 nM
same,GI50,EKVX NSCLC,2040 nM
same,TGI,EKVX NSCLC,5360 nM
same,GI50,HCC-2998 colon,1760 nM
same,TGI,HCC-2998 colon,3240 nM
same,GI50,HCT-116 colon,1670 nM
same,TGI,HCT-116 colon,3220 nM
same,GI50,HCT-15 colon,1520 nM
same,TGI,HCT-15 colon,3350 nM
same,GI50,HL-60(TB) leukemia,2510 nM
same,TGI,HL-60(TB) leukemia,6370 nM
same,GI50,HOP-62 NSCLC,1740 nM
same,TGI,HOP-62 NSCLC,3520 nM
same,GI50,HOP-92 NSCLC,1490 nM
same,TGI,HOP-92 NSCLC,3330 nM
same,GI50,HS 578T breast,1840 nM
same,TGI,HS 578T breast,4810 nM
same,GI50,IGROV1 ovarian,1880 nM
same,TGI,IGROV1 ovarian,4390 nM
same,GI50,KM12 colon,2080 nM
same,TGI,KM12 colon,4440 nM
same,GI50,LOX IMVI melanoma,1730 nM
same,TGI,LOX IMVI melanoma,3150 nM
same,GI50,M14 melanoma,1720 nM
same,TGI,M14 melanoma,3450 nM
same,GI50,MALME-3M melanoma,1660 nM
same,TGI,MALME-3M melanoma,3410 nM
same,GI50,MCF7 breast,1840 nM
same,TGI,MCF7 breast,3910 nM
same,GI50,MDA-MB-231 breast,1870 nM
same,TGI,MDA-MB-231 breast,3870 nM
same,GI50,MDA-MB-435,1790 nM
same,TGI,MDA-MB-435,3410 nM
same,GI50,MOLT-4 leukemia,1910 nM
same,TGI,MOLT-4 leukemia,5640 nM
same,GI50,NCI-H226 lung,2110 nM
same,TGI,NCI-H226 lung,5040 nM
same,GI50,NCI-H23 lung,1680 nM
same,TGI,NCI-H23 lung,3480 nM
same,GI50,NCI-H460 lung,1940 nM
same,TGI,NCI-H460 lung,3920 nM
same,GI50,NCI-H522 lung,1920 nM
same,TGI,NCI-H522 lung,3910 nM
same,GI50,NCI/ADR-RES ovarian,1920 nM
same,TGI,NCI/ADR-RES ovarian,4620 nM
same,GI50,OVCAR-3 ovarian,1890 nM
same,TGI,OVCAR-3 ovarian,3720 nM
same,GI50,OVCAR-4 ovarian,1940 nM
same,TGI,OVCAR-4 ovarian,4640 nM
same,GI50,OVCAR-5 ovarian,1570 nM
same,TGI,OVCAR-5 ovarian,3190 nM
same,GI50,OVCAR-8 ovarian,2220 nM
same,TGI,OVCAR-8 ovarian,5810 nM
same,GI50,PC-3 prostate,1360 nM
same,TGI,PC-3 prostate,3690 nM
same,GI50,RXF 393 renal,1460 nM
same,TGI,RXF 393 renal,2990 nM
same,GI50,SF-268 CNS,2180 nM
same,TGI,SF-268 CNS,5780 nM
same,GI50,SF-295 CNS,1790 nM
same,TGI,SF-295 CNS,3370 nM
same,GI50,SF-539 CNS,1650 nM
same,TGI,SF-539 CNS,3140 nM
same,GI50,SK-MEL-2 melanoma,1920 nM
same,TGI,SK-MEL-2 melanoma,3890 nM
same,GI50,SK-MEL-28 melanoma,1570 nM
same,TGI,SK-MEL-28 melanoma,3060 nM
same,GI50,SK-MEL-5 melanoma,1440 nM
same,TGI,SK-MEL-5 melanoma,2760 nM
same,GI50,SK-OV-3 ovarian,2350 nM
same,TGI,SK-OV-3 ovarian,6080 nM
same,GI50,SN12C renal,1650 nM
same,TGI,SN12C renal,3100 nM
same,GI50,SNB-19 CNS,2180 nM
same,TGI,SNB-19 CNS,4960 nM
same,GI50,SNB-75 CNS,1370 nM
same,TGI,SNB-75 CNS,3030 nM
same,GI50,SW-620 colon,1770 nM
same,TGI,SW-620 colon,3560 nM
same,GI50,T-47D breast,1820 nM
same,TGI,T-47D breast,5510 nM
same,GI50,TK-10 renal,2380 nM
same,TGI,TK-10 renal,5930 nM
same,GI50,U251 CNS,1620 nM
same,TGI,U251 CNS,3420 nM
same,GI50,UACC-257 melanoma,1860 nM
same,TGI,UACC-257 melanoma,3810 nM
same,GI50,UACC-62 melanoma,1650 nM
same,TGI,UACC-62 melanoma,3290 nM
same,GI50,UO-31 renal,1890 nM
same,TGI,UO-31 renal,5020 nM
